Assay results taken from US20030088061A1, “Materials and methods to modulate ligand binding/enzymatic activity of alpha/beta proteins containing an allosteric regulatory site” (priority 2000, published 2003).
Several values for one entry are separate records, joined by “and”; a condition that tells them apart may be missing. Equal entries are not always repeated. Where two headings read alike, the source gives them in different places.

What was measured:
[1] = molecular target: T1, Rac1 (Homo sapiens, UniProt P63000); test: Tiam1-catalyzed guanine nucleotide exchange of Rac1; assay type: biochemical; details: in the presence of Tiam1; read-out: IC50, Rac1 guanine nucleotide exchange reaction
T1 construct: GST (cleaved yes); made in house; host or cells: E. coli
Protocol: Rac1 was expressed in E. coli as a GST fusion protein using the vector pGEX2T in accordance with previously described methods [Self and Hall, Meth. Enzymol. 256:3 (1995)]. Purified thrombin-cleaved Rac1 protein was used in the assay.
The Tiam1 DH-PH domain expressed as a fusion protein containing a carboxy terminal 6XHis tag using the plasmid pET28a described by Rossman and Campbell, Meth. Enzymol. 325:25 (2000).
The Tiam1-catalyzed exchange of GDP for GTP of Rac1 was carried out essentially according to the procedure described by Crompton et al., J. Biol.Chem. 275(33):25751 (2000). GDP-bound Rac1 was incubated with [α^32P]-labeled GTP, in the presence of Tiam1 and nucleotide exchange was monitored by following the increase in radioactivity bound to Rac1. Free radioactivity was removed by placing the reaction mixture in the well of a 96-well plate and filtering out the fraction of [α^32P]GTP that is not bound to Rac1. During the screen for the nucleotide exchange antagonists, the compounds were used at 10 μM concentration. The compounds analyzed by the screening methods are further described below.
Compounds that inhibit the Rac1 guanine nucleotide exchange reaction by at least 50% of the control were obtained. The IC50 value of several of the compounds were determined for the guanine nucleotide exchange reaction of Rac1, in the presence of Tiam1.

[2] = molecular target: T2, CD11b (Mac-1) (Homo sapiens, UniProt P11215); test: CD11b-mediated neutrophil adhesion to fibrinogen; assay type: cell-based
T2 construct: endogenous in cells; host or cells: neutrophils from fresh human blood
Protocol: The adhesion assay described above for CD18/CD11b-(Mac-1)-mediated adhesion of HL-60 cells to ICAM-1 was carried out with the following modifications. Each well was coated overnight at 4° C. with 50 μl of glycophorin (10 μg/ml), fibrinogen (5 μg/ml) or with anti-CD18 monoclonal antibody (22F12C, 5 μg/ml) and anti-CD11b monoclonal antibody (44AACB, 5 μg/ml) in 50 mM bicarbonate buffer (pH 9.6). Plates were blocked with 1% human serum albumin and no blocking antibody was used. Neutrophils were isolated from fresh heparin whole human blood by density gradient centrifugation and 100 μl of the cells (4×10^6 cells/ml) in adhesion buffer was added to each well. Plates were incubated at 37° C. for 10 minutes.

[3] = molecular target: T3, α2β1 (Homo sapiens, UniProt P05556+P17301); test: Jurkat cell adhesion to rat type I collagen; assay type: cell-based; details: Jurkat cells, PMA
T3 construct: endogenous in cells; host or cells: Jurkat cells
T3 sequence (P17301 30-1181): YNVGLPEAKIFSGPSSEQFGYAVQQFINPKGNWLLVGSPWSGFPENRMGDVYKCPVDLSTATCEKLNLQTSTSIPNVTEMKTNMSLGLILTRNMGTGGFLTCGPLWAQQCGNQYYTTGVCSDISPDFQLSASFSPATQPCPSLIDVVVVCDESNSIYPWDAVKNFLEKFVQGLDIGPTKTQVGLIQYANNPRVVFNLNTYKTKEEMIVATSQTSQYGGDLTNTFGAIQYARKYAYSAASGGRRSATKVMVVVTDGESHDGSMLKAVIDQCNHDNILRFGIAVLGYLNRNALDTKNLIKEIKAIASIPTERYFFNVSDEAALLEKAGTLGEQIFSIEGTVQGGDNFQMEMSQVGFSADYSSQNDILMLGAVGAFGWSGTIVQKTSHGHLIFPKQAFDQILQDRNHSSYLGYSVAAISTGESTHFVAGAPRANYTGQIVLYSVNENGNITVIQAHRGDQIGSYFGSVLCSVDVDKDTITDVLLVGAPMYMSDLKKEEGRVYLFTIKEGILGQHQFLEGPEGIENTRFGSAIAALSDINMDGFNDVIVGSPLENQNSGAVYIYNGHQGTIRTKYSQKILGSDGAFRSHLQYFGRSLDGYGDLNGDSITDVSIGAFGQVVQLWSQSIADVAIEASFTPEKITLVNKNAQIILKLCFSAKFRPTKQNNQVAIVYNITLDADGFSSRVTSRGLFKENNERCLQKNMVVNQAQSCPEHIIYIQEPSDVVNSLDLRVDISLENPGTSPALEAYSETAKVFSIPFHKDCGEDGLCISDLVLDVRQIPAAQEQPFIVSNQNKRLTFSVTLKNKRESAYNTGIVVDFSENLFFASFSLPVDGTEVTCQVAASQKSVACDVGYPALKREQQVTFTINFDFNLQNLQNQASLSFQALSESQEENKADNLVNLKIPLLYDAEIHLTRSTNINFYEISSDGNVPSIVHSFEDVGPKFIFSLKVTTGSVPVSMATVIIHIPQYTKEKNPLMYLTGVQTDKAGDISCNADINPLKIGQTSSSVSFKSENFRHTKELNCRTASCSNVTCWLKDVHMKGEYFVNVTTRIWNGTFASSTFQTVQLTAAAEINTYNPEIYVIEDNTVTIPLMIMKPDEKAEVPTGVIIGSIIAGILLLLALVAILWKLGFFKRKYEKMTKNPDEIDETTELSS
T3 sequence (P05556 21-798 partner): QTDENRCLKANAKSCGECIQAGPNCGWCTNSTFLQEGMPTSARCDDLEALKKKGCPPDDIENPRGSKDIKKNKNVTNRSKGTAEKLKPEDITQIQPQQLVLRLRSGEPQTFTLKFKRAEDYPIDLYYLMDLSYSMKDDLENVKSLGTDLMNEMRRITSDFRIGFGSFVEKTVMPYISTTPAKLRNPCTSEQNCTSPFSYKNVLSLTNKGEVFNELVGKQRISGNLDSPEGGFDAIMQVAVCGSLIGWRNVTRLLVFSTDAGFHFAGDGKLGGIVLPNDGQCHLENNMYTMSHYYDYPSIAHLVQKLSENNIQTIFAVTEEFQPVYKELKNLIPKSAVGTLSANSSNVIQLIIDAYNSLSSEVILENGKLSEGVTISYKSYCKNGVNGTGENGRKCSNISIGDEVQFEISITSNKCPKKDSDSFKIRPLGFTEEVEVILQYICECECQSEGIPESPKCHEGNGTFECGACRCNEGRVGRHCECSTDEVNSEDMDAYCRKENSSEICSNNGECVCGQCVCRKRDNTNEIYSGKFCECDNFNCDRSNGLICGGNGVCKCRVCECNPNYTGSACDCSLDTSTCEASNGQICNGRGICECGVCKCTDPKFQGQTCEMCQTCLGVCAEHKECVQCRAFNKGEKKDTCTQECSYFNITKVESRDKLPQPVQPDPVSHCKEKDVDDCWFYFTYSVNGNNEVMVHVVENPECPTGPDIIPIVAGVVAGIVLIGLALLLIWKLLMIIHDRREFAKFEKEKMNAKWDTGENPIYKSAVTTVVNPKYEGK
Protocol: Binding studies using monoclonal antibodies to each of these integrins has shown that Jurkat cell adhesion to rat type I collagen is mediated predominantly through interaction with alpha2. […] The assay was carried out using a modification of a procedure previously described [Sadhu, et al., supra]. Immunlon 4 plates (Dynex Technologies, Chantilly, Va.) were coated overnight at 4° C. with (i) 50 μl rat type I collagen (Sigma) (20 μg/ml in CMF-PBS), (ii) anti-beta1 monoclonal antibody 3S3 (5 μg/ml) in bicarbonate buffer, pH 9.6, (iii) or bicarbonate buffer alone. Plates were washed once with 200 μl/well D-PBS and blocked with 1% BSA (100 μl/well) in D-PBS for 1 hr at room temperature. […] Adherent cells were fixed by additional of 50 μl/well 14% glutaraldehyde in D-PBS and incubation at room temperature for 2 hr. The plates were washed with dH2O and stained with 50 μl/well 0.5% crystal violet in 10% ethanol for 5 min at room temperature. The plates were washed in several changes of dH2O, after which 70% ethanol was added. Adherent cells were quantitated by determining absorbance at 570 nm and 410 nm using a […] 250 microplate spectrophotometer system (Molecular Devices, Sunnyvale Calif.). The percentage of cell binding was determined using the formula below. [formula] Data was normalized using the formula: [formula] […] These 21 compounds were further analyzed for specificity and toxicity. […] The assay was carried out in a manner similar to the collagen adhesion assay described above except that […] with VCAM-1/Ig instead of collagen. Binding to VCAM-1 was dependent on surface expression of α4β1.

[4] = test system: Jurkat cells; test: Jurkat cell toxicity (CellTiter 96 Aqueous One Solution); assay type: cell-based; details: four hr or 24 hr incubation
Protocol: For 21 compounds, toxicity of Jurkat cells was assessed following a four hr or 24 hr incubation. […] A two-fold serial dilution series of each compound was tested in a concentration range of 40 μM to 0.15 μM.

[5] = molecular target: α4β1 (Homo sapiens, UniProt P05556+P13612); test: Jurkat cell binding to immobilized VCAM-1/Ig; assay type: cell-based; set-up: endogenous in cells; host or cells: Jurkat cells; details: Jurkat cells; tested 0.15 μM to 20 μM; read-out: α7β1/VCAM EC50
Sequence of α4β1 (P13612 34-1032): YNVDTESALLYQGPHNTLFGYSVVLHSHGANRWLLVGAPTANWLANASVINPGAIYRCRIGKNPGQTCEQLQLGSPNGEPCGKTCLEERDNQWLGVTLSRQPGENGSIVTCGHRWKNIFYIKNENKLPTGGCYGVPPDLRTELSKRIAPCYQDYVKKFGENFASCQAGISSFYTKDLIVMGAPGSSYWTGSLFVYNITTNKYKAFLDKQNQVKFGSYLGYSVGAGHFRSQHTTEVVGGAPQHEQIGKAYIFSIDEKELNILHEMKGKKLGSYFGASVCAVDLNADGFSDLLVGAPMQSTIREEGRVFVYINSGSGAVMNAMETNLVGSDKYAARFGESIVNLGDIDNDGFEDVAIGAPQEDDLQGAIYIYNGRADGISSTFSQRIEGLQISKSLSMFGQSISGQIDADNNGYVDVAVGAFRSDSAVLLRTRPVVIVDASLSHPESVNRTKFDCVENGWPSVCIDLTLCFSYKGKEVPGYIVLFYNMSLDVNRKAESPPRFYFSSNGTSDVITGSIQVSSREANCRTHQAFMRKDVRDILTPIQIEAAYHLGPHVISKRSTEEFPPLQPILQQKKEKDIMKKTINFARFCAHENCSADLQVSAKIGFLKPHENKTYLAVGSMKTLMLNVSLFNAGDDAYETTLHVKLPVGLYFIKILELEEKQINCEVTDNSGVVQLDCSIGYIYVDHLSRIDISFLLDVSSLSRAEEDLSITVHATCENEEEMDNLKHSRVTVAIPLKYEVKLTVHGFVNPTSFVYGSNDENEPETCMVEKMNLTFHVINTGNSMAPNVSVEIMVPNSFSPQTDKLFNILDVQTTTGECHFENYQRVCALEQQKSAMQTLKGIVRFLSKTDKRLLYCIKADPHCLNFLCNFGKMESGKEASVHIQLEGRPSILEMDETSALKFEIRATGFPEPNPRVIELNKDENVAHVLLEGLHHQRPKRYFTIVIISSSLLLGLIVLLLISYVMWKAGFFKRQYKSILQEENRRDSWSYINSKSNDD
Sequence of α4β1 (P05556 21-798): as the sequence (P05556 21-798 partner) above
Protocol: These 21 compounds were further analyzed for specificity and toxicity. […] The assay was carried out in a manner similar to the collagen adhesion assay described above except that […] with VCAM-1/Ig instead of collagen. Binding to VCAM-1 was dependent on surface expression of α4β1.

[6] = molecular target: ICAM-1/Fc (Homo sapiens (Human)) (UniProt P05362); test: adhesion of COS-7 transfectants to immobilized ICAM-1/Fc
[7] = molecular target: iC3b (Homo sapiens (Human)) (UniProt P01024); test: adhesion of COS-7 transfectants to immobilized iC3b
[8] = after SAR efforts based on Cmpd S, read-out: IC50 (inhibition potency), neutrophil adhesion to fibrinogen
[9] = read-out: IC50, neutrophil adhesion to fibrinogen

CSc1ccc(-c2ccnc(N3CCC(C)CC3)c2)cc1C(C)(F)F [Cmpd AAA]
IC50 [1]: 3.5 µM

CC(C)Sc1ccc(-c2ccnc(N3CCCC(C)(C)C3)c2)cc1C(F)(F)F [Cmpd AAB]
IC50 [1]: 4.7 µM

CC(C)Sc1ccc(-c2ccnc(N3CCC(NC(=O)OC(C)(C)C)CC3)c2)cc1C(F)(F)F [Cmpd AAC]
IC50 [1]: 5 µM

CC(CN(C)C)NCc1ccccc1Sc1ccc(C(C)(C)C)cc1 (centres unmarked) [Cmpd AA]
IC50 [2, 8]: < 0.2 µM

CC(C)(C)c1ccc(Sc2ccccc2CNCCN2CCCC2)cc1.O=C(O)C(F)(F)F.O=C(O)C(F)(F)F [Cmpd AB]
EC50 [3]: 13 µM
TOXICITY LD50 [4]: >40 µM
EC50 [5]: > 20 µM

CN(C)CCCCNCc1ccccc1Sc1c(Cl)cccc1Cl [Cmpd AC]
IC50 [2, 8]: < 0.2 µM

CN(CCCNCc1ccccc1Sc1c(Cl)cccc1Cl)c1ccccc1.O=C(O)C(F)(F)F.O=C(O)C(F)(F)F [Cmpd AD]
EC50 [3]: 2 µM
TOXICITY LD50 [4]: 3 µM
EC50 [5]: > 20 µM

CN(CCCNCc1ccccc1Sc1ccc2ccccc2c1)c1ccccc1.O=C(O)C(F)(F)F.O=C(O)C(F)(F)F [Cmpd AE]
EC50 [3]: 7 µM
TOXICITY LD50 [4]: 30 µM
EC50 [5]: > 20 µM

O=C(O)C(F)(F)F.O=C(O)C(F)(F)F.c1ccc(CN2CCC(NCc3ccccc3Sc3ccc4ccccc4c3)CC2)cc1 [Cmpd AF]
EC50 [3]: 6 µM
TOXICITY LD50 [4]: 35 µM
EC50 [5]: > 20 µM

CCN1CCCC1CNCc1ccccc1Sc1ccc2ccccc2c1.O=C(O)C(F)(F)F.O=C(O)C(F)(F)F (centres unmarked) [Cmpd AG]
EC50 [3]: 7 µM
TOXICITY LD50 [4]: 35 µM
EC50 [5]: > 20 µM

O=C(O)C(F)(F)F.O=C(O)C(F)(F)F.c1ccc(Sc2ccc3ccccc3c2)c(CNCCN2CCCC2)c1 [Cmpd AH]
EC50 [3]: 9 µM
TOXICITY LD50 [4]: 38 µM
EC50 [5]: > 20 µM

CN(C)CCCNCc1ccccc1Sc1ccc2ccccc2c1.O=C(O)C(F)(F)F.O=C(O)C(F)(F)F [Cmpd AI]
EC50 [3]: 6 µM
TOXICITY LD50 [4]: 33 µM
EC50 [5]: > 20 µM

FC(F)(F)Oc1ccc(Sc2ccccc2CNC2CCN(Cc3ccccc3)CC2)cc1.O=C(O)C(F)(F)F.O=C(O)C(F)(F)F [Cmpd AJ]
EC50 [3]: 8 µM
TOXICITY LD50 [4]: 38 µM
EC50 [5]: > 20 µM

CN(CCCNCc1ccccc1Sc1cccc(C(F)(F)F)c1)c1ccccc1.O=C(O)C(F)(F)F.O=C(O)C(F)(F)F [Cmpd AK]
EC50 [3]: 9 µM
TOXICITY LD50 [4]: 35 µM
EC50 [5]: > 20 µM

CSc1ccc(Sc2ccccc2CNCCCN(C)c2ccccc2)cc1.O=C(O)C(F)(F)F.O=C(O)C(F)(F)F [Cmpd AL]
EC50 [3]: 8 µM
TOXICITY LD50 [4]: 20 µM
EC50 [5]: > 20 µM

CCN1CCN(c2cc(-c3ccc(Sc4ccccc4C(C)C)c(C(F)(F)F)c3)ccn2)CC1.O=C(O)C(F)(F)F.O=C(O)C(F)(F)F [Cmpd AN]
EC50 [3]: 17 µM
TOXICITY LD50 [4]: >40 µM
EC50 [5]: > 20 µM

CN(CCCNCc1ccccc1Sc1c(Cl)cccc1Cl)c1ccccc1 [Cmpd AY]
IC50 [1]: 1.9 µM

CN(CCCNCc1ccccc1Sc1cc(Cl)cc(Cl)c1)c1ccccc1 [Cmpd AZ]
IC50 [1]: 3.1 µM

O=C(/C=C/c1ccc(Sc2ccc(Cl)cc2Cl)c([N+](=O)[O-])c1)N1CCNCC1 [Cmpd A]
EC50 [3]: 14 µM
TOXICITY LD50 [4]: >40 µM
EC50 [5]: 17 µM

O=C(/C=C/c1ccc(Sc2ccc3c(c2)OCCO3)c([N+](=O)[O-])c1)N1CCNCC1 [Cmpd B]
EC50 [3]: 17 µM
TOXICITY LD50 [4]: >40 µM
EC50 [5]: > 20 µM

CC(C)c1ccc(Sc2ccc(N)cc2Cl)cc1 [Cmpd E]
EC50 [3]: 16 µM
TOXICITY LD50 [4]: >40 µM
EC50 [5]: > 20 µM

CC(C)c1ccccc1Sc1ccc(/C=C/C(=O)N2CCN(C(=O)OC(C)(C)C)C(CO)C2)cc1[N+](=O)[O-] (centres unmarked) [Cmpd F]
IC50 [2, 9]: < 10 µM

CC(=O)N1CCN(C(=O)C2CC2c2ccc(Sc3ccccc3C(C)C)c(Cl)c2Cl)CC1 (centres unmarked) [Cmpd G]
EC50 [3]: 16 µM
TOXICITY LD50 [4]: >40 µM
EC50 [5]: > 20 µM

O=C(/C=C/c1ccc(Sc2cccc(N3CCC(N4CCCC4)CC3)c2)c(Cl)c1Cl)NCCCN1CCCC1=O [Cmpd J]
EC50 [3]: 8 µM
TOXICITY LD50 [4]: >40 µM
EC50 [5]: > 20 µM

O=C(/C=C/c1ccc(Sc2ccccc2CN2CCOCC2)c(Cl)c1)N1CCOCC1 [Cmpd L]
IC50 [2, 9]: < 10 µM

Cl.O=C1CCCN1CCCNCc1ccc(Sc2cccc(Cl)c2Cl)c(Cl)c1 [Cmpd M]
EC50 [3]: 8 µM
TOXICITY LD50 [4]: 25 µM
EC50 [5]: > 20 µM

CN(C)CCCCNCc1ccc(Sc2ccc(Cl)cc2Cl)c(Cl)c1 [Cmpd N]
IC50 [2, 9]: < 10 µM

CN(C)CCCCNCc1ccccc1Sc1ccc(Cl)cc1Cl [Cmpd O]
IC50 [2, 9]: < 10 µM

CN(C)CCN(Cc1ccc(Sc2ccc(Cl)cc2Cl)c(Cl)c1)C(=O)c1ccc(/C=C/C(=O)N2CCOCC2)cc1Cl [Cmpd P]
IC50 [2, 9]: < 10 µM

CN(C)CCN(Cc1ccccc1Sc1ccc(Cl)cc1Cl)C(=O)c1ccc(/C=C/C(=O)N2CCOCC2)cc1Cl [Cmpd Q]
IC50 [2, 9]: < 10 µM

CN(C)CCNCc1ccc(Sc2ccc(Cl)cc2Cl)c(Cl)c1 [Cmpd R]
IC50 [2, 9]: < 10 µM

CN(C)CCNCc1ccccc1Sc1ccc(Cl)cc1Cl [Cmpd S]
IC50 [2, 9]: < 10 µM and 1 µM

CN1CCCN(C(=O)/C=C/c2ccc(Sc3ccc4c(ccn4C)c3)c(Cl)c2Cl)CC1.O=C(O)C(F)(F)F [Cmpd T]
EC50 [3]: 4 µM
TOXICITY LD50 [4]: 25 µM
EC50 [5]: 15 µM

CN1CCN(C(=O)/C=C/c2ccc(Sc3ccc(Cl)cc3Cl)c(Cl)c2)CC1 [Cmpd U]
EC50 [3]: 15 µM
TOXICITY LD50 [4]: >40 µM
EC50 [5]: > 20 µM

COC(=O)N1CCN(C(=O)/C=C/c2ccc(Sc3ccccc3C(C)C)c([N+](=O)[O-])c2)CC1 [Cmpd V]
IC50 [2, 9]: < 10 µM

Nc1ccc(SCc2ccc(Cl)cc2Cl)c(Cl)c1 [Cmpd X]
EC50 [3]: 8 µM
TOXICITY LD50 [4]: 30 µM
EC50 [5]: > 20 µM

N[C@@H]1Cc2ccccc2O[C@@H]1c1ccc2c(c1)CCO2 [Cmpd Y]
EC50 [3]: 7 µM
TOXICITY LD50 [4]: 25 µM
EC50 [5]: > 20 µM

CD11b E336A / CD18 (from UniProt P11215) (receptor)
binding, % [6]: 0.7%
binding, % [7]: 4.3%

CD11b F333A / CD18 (from UniProt P11215) (receptor)
binding, % [6]: 1.1%
binding, % [7]: 4.9%

CD11b I332A / CD18 (from UniProt P11215) (receptor)
binding, % of wildtype levels (% of wildtype levels) [6]: 123
binding, % [7]: 205%

CD11b Q327A / CD18 (from UniProt P11215) (receptor)
binding, % of wildtype levels (% of wildtype levels) [6]: 105
binding, % [7]: 140%

CD11b V254A / CD18 (from UniProt P11215) (receptor)
binding, % of wildtype levels (% of wildtype levels) [6]: 115
binding, % [7]: 147%
